{"source": "paper PMC9548378", "about": "(Science translational medicine, 2022)", "target": "T1, KDM4B (Homo sapiens, UniProt O94953)", "T1 sequence (O94953 1-366)": "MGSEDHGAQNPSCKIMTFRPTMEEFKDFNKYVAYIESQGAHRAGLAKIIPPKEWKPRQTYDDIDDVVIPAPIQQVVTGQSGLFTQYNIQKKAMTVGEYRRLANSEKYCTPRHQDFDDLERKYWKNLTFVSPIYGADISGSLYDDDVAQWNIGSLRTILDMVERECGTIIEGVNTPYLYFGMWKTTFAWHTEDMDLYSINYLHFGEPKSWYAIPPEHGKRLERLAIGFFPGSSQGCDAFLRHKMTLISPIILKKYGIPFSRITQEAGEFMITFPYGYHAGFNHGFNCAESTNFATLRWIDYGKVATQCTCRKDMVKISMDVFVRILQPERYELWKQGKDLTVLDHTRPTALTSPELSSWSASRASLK", "experiment": "co-crystal structure", "format": "binding", "data": [{"smiles": "CN(c1ccccc1)c1ccc2c(c1)CCC[C@H]2CNc1cnccc1C(=O)O", "note": "[QC6352]", "values": [{"measurement": "Kd", "value": 105, "unit": "nM"}]}]}
